Results on 1 compound are retold here after PMC12153338, “Resistance to oxyimino-cephalosporins conferred by an alternative mechanism of hydrolysis by the Acinetobacter-derived cephalosporinase-33 (ADC-33), a class C β-lactamase present in carbapenem-resistant Acinetobacter baumannii (CRAb)” (mBio, 2025).

For assay [1], the target named is ADC-30 (Acinetobacter baumannii, UniProt A7XM81). In words: Thermal denaturation by circular dichroism, ADC-30. The format is binding. To be noted: ADC-30 12 µM, 1 mM antibiotic, PBS pH 7.4. The method, then:
For thermal denaturation, protein samples were monitored for helical content by circular dichroism in the far-UV region at 210 and 220 nm using a Jasco J-815 spectrometer (Easton, MD) with a Peltier-effect temperature controller, as previously described ([41]). Enzyme concentrations were 12 µM in phosphate-buffered saline (PBS) pH 7.4. The thermodynamic stability of apoADC-30 and ADC-33, and with 1 mM FDC and CAZ, was determined from equilibrium unfolding curves. With the assumption of a reversible two-state transition, we determined the Tm at the midpoint of equilibrium folding. Thermal denaturation experiments were done in duplicate under the same conditions, with each data point representing the average of three successive scans, and the Tm values are consistent with ±1°C variation.
(In general: CD spectra are sensitive to the conformation of chiral molecules.)

Assay [2] concerns ADC-33 in DH10B Escherichia coli. The assay can be described thus: MIC by broth microdilution, ADC-33 in DH10B E. coli. The format is cell-based. The settings on record: DH10B E. coli expressing ADC-33 (Adup) from pBCSK−, FDC in iron-depleted cation-adjusted MH broth, mode of triplicate. The method, then: (§1) Susceptibility testing to standard antibiotics was performed by broth microdilution according to 2024 Clinical and Laboratory Standards Institute (CLSI) guidelines ([38]). MICs for FDC were done in iron-depleted cation-adjusted Mueller-Hinton (MH) broth according to CLSI methods. All MICs were interpreted according to the 2024 CLSI guidelines ([38]). MICs are done in triplicate, and the mode MIC value is reported.
(§2) blaADC-7 pBCSK− was cloned and expressed in E. coli DH10B cells as previously described for MIC determinations ([3]). The pBCSK-non-inducible phagemid vector has a chloramphenicol resistance gene used to aid selection. All other blaADC variants were synthesized by GenScript according to the blaADC-7 pBCSK− strategy, cloning into the XbaI/BamHI sites of the pBCSK− vector ([5]).

Assay [3] concerns the target T1, ADC-33 (Acinetobacter baumannii, UniProt A7Y407). In words: Competition kinetics with nitrocefin (Ki), ADC-33. The format is biochemical. The settings on record: 3 min pre-incubation, Cheng-Prusoff corrected. The method, then: (§3) For inhibition kinetics, utilizing NCF as a colorimetric substrate of ADCs, the inhibition constant (Ki) of CAZ and FDC with ADCs was determined using competition kinetics as previously described ([5]). After a 3 min pre-incubation of the enzyme (2 nM) with increasing concentration of the inhibitor, measurements of the initial velocities were performed with the addition of 100–200 µM NCF (twofold of the experimentally determined KM value). To determine the average velocities (v0), data from three experiments were fit to the followingequation: […]
(§4) where vu represents the NCF uninhibited velocity and IC50 represents the inhibitor concentration that results in a 50% reduction of vu. The Ki value was corrected for the NCF affinity (KM values for each ADC) with the Cheng-Prusoff ([5]) equation: […]
(§5) The standard error for Ki values was generated by factoring in the larger of the proportional standard errors for the individual IC50 value and the KM -NCF value.

Assay [4] deals with ADC-217 (Acinetobacter baumannii, UniProt Q6DRA1, V286E, form not given). In words: Competition kinetics with nitrocefin (Ki), ADC-217. The format is biochemical. To be noted: 3 min pre-incubation, Cheng-Prusoff corrected. How it is done: as §3, §4, §5
The target of assay [5] is ADC-73 (Acinetobacter baumannii, UniProt A0A059ZDI2). In words: Competition kinetics with nitrocefin (Ki), ADC-73. The format is biochemical. To be noted: 3 min pre-incubation, Cheng-Prusoff corrected. The method, then: as §3, §4, §5
In assay [6] the target is T1, ADC-33. To be noted: hydrolysis by ADC-33; previously determined; cited from earlier work.
The target in assay [7] is T1, ADC-33. The assay can be described thus: Steady-state hydrolysis kinetics, ADC-33. The format is biochemical. How it is done: Steady-state kinetic parameters were determined by combining pure enzyme with antibiotic substrates in 50 mM NaH2PO4, pH 7.4, at room temperature. Changes in absorbance were measured on the Cary 60 UV−Vis spectrophotometer (Agilent Technologies) and converted to velocity using the change in extinction coefficient specific to nitrocefin (NCF) (ε482 = 17,400 M^−1·cm^−1), CAZ (ε260 8,660 M^−1·cm^−1), and cefiderocol (ε259 9,430 M^−1·cm^−1). The concentration of enzyme ranged from 0.1 to 1.0 µM, and all kinetic experiments were performed at least in triplicate. Initial velocities were fitted to the Michaelis-Menten equation, yielding kcat and KM values. The standard error for kcat/KM values was generated by factoring in the larger of the proportional standard errors for the individual kcat value and the KM value. For ADC/substrate combinations in which the KM was too large to accurately determine both kcat and KM values, the initial velocities at kcat/KM values were calculated from linear fits of vo in low [S] ranges (<0.08 * KM).

Assay [8] relates to ADC-73 in DH10B Escherichia coli. In words: MIC by broth microdilution, ADC-73 in DH10B E. coli. The settings on record: DH10B E. coli expressing ADC-73 (non-Adup) from pBCSK−, FDC in iron-depleted cation-adjusted MH broth, mode of triplicate. The format is cell-based. The method, then: as §1, §2
The test system of assay [9] is ADC-30 in DH10B Escherichia coli. The assay can be described thus: MIC by broth microdilution, ADC-30 in DH10B E. coli. The format is cell-based. To be noted: DH10B E. coli expressing ADC-30 (non-Adup) from pBCSK−, FDC in iron-depleted cation-adjusted MH broth, mode of triplicate. The method, then:
as §1, §2
Background: Dilution methods test growth across graded concentrations, often in twofold steps.

The structures appear in SMILES notation. Values after ≈ are worked out from the molar mass of the structure shown.

The MIC is the lowest concentration that inhibits growth of the organism. A high value points to a need for much substance. For orientation: Ki means the dissociation constant of the complex between target and ligand, obtained from inhibition or displacement. Broadly, the kcat is the maximal rate divided by the concentration of active sites. Turning to `CC(C)(O/N=C(\C(=O)N[C@@H]1C(=O)N2C(C(=O)[O-])=C(C[n+]3ccccc3)CS[C@H]12)c1csc(N)n1)C(=O)O` [CAZ, ceftazidime], the “change of Tm of the β-lactamase on addition of antibiotic” value in [1] is on record as “does not alter the Tm”. Further, the MIC turned out to be 1020 µg/mL (≈ 1870 µM) in [2], 64 µg/mL (≈ 117 µM) in assay [8] and 64 µg/mL (≈ 117 µM) in [9]. Moreover, the Ki in assay [3] was 28.4 ± 2.09 µM; in [4], 0.26 ± 0.014 µM; in [5], 8.72 ± 0.74 µM. For the same compound, the kcat in [6] is 3.71 s⁻¹. In addition, in assay [7], the “fold higher kcat/KM for CAZ versus FDC” value is on record as ~ 10 fold.
